Measured values reported in patent publication US8685730B2, “Methods and devices for differentiating pluripotent stem cells into cells of the pancreatic lineage” (Wisconsin Alumni Research Foundation, priority 2006, dated 2014).

Legend:
Format in all cases: cell-based, human
hESCs [1] = assay: Quantitative RT-PCR (QPCR) of transcript accumulation in hESCs differentiated through Stages 1-4
Protocol: Culture of undifferentiated hESCs or human iPS (hiPS) cells. Cell lines used were NIH-approved H1 (WA01) and H9 (WA09) between passage 18 and 42, though hiPS cell lines derived from iPS (IMR-90)-4-MCB-1, iPS (Foreskin)-1-MCB-1, and DF 19-9-7T-MCB-01 may be used, as well as mouse ES cells.
Chemically defined medium comprised 80% DMEM/F12 and 20% Knockout serum replacement supplemented with 1 mM L-glutamine, 1% nonessential amino acids, 0.1 mM 2-mercaptoethanol and 4 ng/ml bFGF (all from Invitrogen). hESCs were cultured in 6-well plates on a feeder layer of irradiated MEFs, and the medium was refreshed daily. When the cells were nearly confluent, the ES cell colonies were split and passaged by detaching them from the feeder layer with 2 mg/ml dispase (Invitrogen). The colonies were then rinsed off the plates and filtered through a 70 μm cell strainer to remove MEFs. The colonies remained in the strainer. The retained cells were rinsed, pipetted into small pieces, and plated on growth factor-depleted Matrigel™ (BD Biosciences) at a density of 70% to 80% confluence in MEF-conditioned media.
Stage 1. On the day after splitting, differentiation was initiated by replacing the medium with medium containing 100 ng/ml bFGF, 100 ng/ml Activin A and 50 ng/ml BMP4 (FAB) in DMEM/F12 supplemented with 2% BSA, 1 mML-glutamine, 1% nonessential amino acids and 0.1 mM 2-mercaptoethanol for 3 to 4 days. The medium was refreshed daily.
(§1) Stage 2. FAB-treated cells were detached from the plate with 2 mg/ml dispase and grown in suspension as cell aggregates in MEF-conditioned medium (CM) for 2 days. On the third day, the medium was switched to DMEM/F12 with ITS supplement (BD, 5 μg/ml insulin+5 μg/ml transferrin+5 ng/ml selenous acid) and 50 ng/ml bFGF for 12 days in suspension culture dishes. The medium was refreshed every 2 days.
Stage 3. Cell aggregates were transferred to a 15 ml centrifuge tube and allowed to settle by gravity. The medium was aspirated, and the pellet-containing tube placed on ice. Two milligrams of Matrigel™ were diluted with 3 ml of cold DMEM/F12 added to the pellet at a density of 50 to 100 cell aggregates/ml. One half milliliter of this diluted Matrigel™/cell aggregate mixture was added onto a coverslip previously loaded into wells of a 24-well plate and incubated overnight at 37° C. in 5% CO2.
Nongelled Matrigel™ was aspirated from the wells and ITSFINE medium, a serum-free medium comprised of DMEM/F12 with ITS, 10 ng/ml FGF7 (R&D), 200 nM INGAP (PSN-4765, sequence: IGLHDPSHGTLPNGS), 10 mM nicotinamide (Sigma), 10 nM exendin-4 (Sigma), 4 μg/ml insulin (Gibco) and 2 g/L BSA (Sigma) was added for 21 to 28 days. The medium was refreshed every other day. As an alternative to DMEM/F12 only, DMEM/F12 may be used for the first 14 days of culture followed by 14 days of RPMI1640 as the base medium.
Stage 4. The sphere-structured cell masses were washed and the medium was replaced with RPMI1640 supplemented with 1×B27 (Invitrogen) and 10 mM nicotinamide for 1 to 2 weeks. Alternatively, the sphere-structured cell masses may be dislodged with 2 mg/ml dispase (two hundred microliters of per well of a 24-well plate), rinsed off the plate, and placed in suspension culture dishes in DMEM/F12 supplemented with 1×B27 and 10 mM nicotinamide for 1 to 2 weeks.
Total cellular RNA was extracted with Trizol (Invitrogen). cDNA was synthesized from 1 μg total RNA using a SuperScript First-Strand Synthesis kit (Invitrogen). Quantitative real time RT-PCR (QPCR) was performed using Assays-on-demand agents (Applied Biosystems) on an ABI PRISM 7700 Sequence Detection System (Applied Biosystems) for the following transcripts: foxa2, sox17, brachyury, ngn3, pdx1, insulin, glucagon, glut2 and an endogenous control, β-actin (see Table No. 2 for assay numbers). QPCR was performed according to the equipment manufacturer's instructions. Relative quantification was carried out using the comparative cycle threshold (CT) method recommended by the supplier. […]

hESCs [2] = assay: Trophoblast differentiation (hCG and CDX2 expression); conditions: for cdx2 expression at Stage 1: compared to undifferentiated hESCs
Protocol: FIG. 3 illustrates how treatment of hESCs with BMP4 and/or bFGF influences cell fate. Cultures of adherent, undifferentiated hESCs grown in MEF-conditioned media were treated for 1, 4, or 7 days and then assayed for human chorionic gonadotropin (hCG) protein expression (a) or hCG transcript accumulation by QPCR (b). For QPCR results, the fold change values and statistical analyses were calculated by comparing treated cells with cells grown to the same time point but without added growth factors (ctrl). B10, 10 ng/ml BMP4; B50, 50 ng/ml BMP4; B100, 100 ng/ml BMP4; B10F, 10 ng/ml BMP4+100 ng/ml bFGF; B50F, 50 ng/ml BMP4+100 ng/ml bFGF; B100F, 100 ng/ml BMP4+100 ng/ml bFGF. *, p<0.05; **, p<0.01.
FIG. 4 illustrates the expression of cdx2 transcript at Stage 1. Fold change values compared to undifferentiated hESCs are shown. […] CM, conditioned media; F, bFGF; A, Activin A; B, BMP4; inhib, SB431542 Activin signaling inhibitor; D/F, DMEM/F12; I, insulin. See Materials and Methods for growth factor concentrations.
(§2) Total cellular RNA was extracted with Trizol (Invitrogen). cDNA was synthesized from 1 μg total RNA using a SuperScript First-Strand Synthesis kit (Invitrogen). Quantitative real time RT-PCR (QPCR) was performed using Assays-on-demand agents (Applied Biosystems) on an ABI PRISM 7700 Sequence Detection System (Applied Biosystems) for the following transcripts: foxa2, sox17, brachyury, ngn3, pdx1, insulin, glucagon, glut2 and an endogenous control, β-actin (see Table No. 2 for assay numbers). QPCR was performed according to the equipment manufacturer's instructions. Relative quantification was carried out using the comparative cycle threshold (CT) method recommended by the supplier. Fold change was calculated as: 2^−ΔΔCT. Mean ΔΔCT values from QPCR analyses were compared using the unpaired, two-tailed Student's t-test. P values <0.05 were considered significant.

hESC = assay: Q-PCR CTs of pancreas-associated transcripts in BMP4-treated, differentiated hESC
Protocol: as §2

hESCs [3] = assay: Embryoid body formation and pancreatic differentiation in suspension culture
Protocol: as §1

Molecule: NC(=O)c1ccc(-c2nc(-c3ccc4c(c3)OCO4)c(-c3ccccn3)[nH]2)cc1 [SB431542, reference compound]
- expression of gsc, Mixl1, Brachyury and FOXA2 (hESCs [1]; added to cells treated with bFGF+BMP4 in CM): completely inhibited expression

Molecule: BMP4: bone morphogenetic protein 4, member of the TGFβ superfamily
- cdx2 expression at Stage 1 (hESCs [2]): increase in cdx2 expression
- trophoblast differentiation (hCG and CDX2 expression) (hESCs [2]; higher concentrations, alone, 7 days): high proportion of trophoblast differentiation
- endoderm- (sox17, foxa2, pdx1) and pancreas-associated (pdx1, insulin) transcripts in EBs (hESCs [1]; hESCs grown on MEFs, 50 ng/ml): increased
- Q-PCR CT of Foxa2 (hESC; EB14): 24.0
- Q-PCR CT of Glucagon (hESC; EB14): 28.7
- Q-PCR CT of Glut2 (hESC; EB14): 23.0
- Q-PCR CT of Insulin (hESC; EB14): 34.6
- Q-PCR CT of Pdx1 (hESC; EB14): 26.7
- Q-PCR CT of T (hESC; EB14): 25.4
- Q-PCR CT of β-actin (hESC; EB14): 15.0
- Q-PCR CT of Foxa2 (hESC; EB14 + 14): 23.1
- Q-PCR CT of Glucagon (hESC; EB14 + 14): 22.0
- Q-PCR CT of Glut2 (hESC; EB14 + 14): 22.0
- Q-PCR CT of Insulin (hESC; EB14 + 14): 28.4
- Q-PCR CT of Pdx1 (hESC; EB14 + 14): 23.9
- Q-PCR CT of T (hESC; EB14 + 14): 27.9
- Q-PCR CT of β-actin (hESC; EB14 + 14): 14.7
- Q-PCR CT of Foxa2 (hESC; EB14 + 21): 23.0
- Q-PCR CT of Glucagon (hESC; EB14 + 21): 21.0
- Q-PCR CT of Glut2 (hESC; EB14 + 21): 21.1
- Q-PCR CT of Insulin (hESC; EB14 + 21): 27.8
- Q-PCR CT of Pdx1 (hESC; EB14 + 21): 24.3
- Q-PCR CT of T (hESC; EB14 + 21): 28.4
- Q-PCR CT of β-actin (hESC; EB14 + 21): 14.9
- Q-PCR CT of Foxa2 (hESC; EB14 + 28): 22.7
- Q-PCR CT of Glucagon (hESC; EB14 + 28): 20.2
- Q-PCR CT of Glut2 (hESC; EB14 + 28): 20.4
- Q-PCR CT of Insulin (hESC; EB14 + 28): 26.0
- Q-PCR CT of Pdx1 (hESC; EB14 + 28): 23.0
- Q-PCR CT of T (hESC; EB14 + 28): 28.5
- Q-PCR CT of β-actin (hESC; EB14 + 28): 15.4
- Q-PCR CT of Foxa2 (hESC; hESC + BMP4): 25.6
- Q-PCR CT of Glucagon (hESC; hESC + BMP4): >50
- Q-PCR CT of Glut2 (hESC; hESC + BMP4): 32.8
- Q-PCR CT of Insulin (hESC; hESC + BMP4): >50
- Q-PCR CT of Pdx1 (hESC; hESC + BMP4): 36.4
- Q-PCR CT of T (hESC; hESC + BMP4): 25.6
- Q-PCR CT of β-actin (hESC; hESC + BMP4): 15.0

Molecule: insulin: a PI3K agonist, component of serum replacement
- induction of Brachyury (hESCs [1]; combined with Activin A): significantly increased
- induction of SOX17 (hESCs [1]; combined with Activin A): significantly decreased

B1: Activin A: member of the TGF-β superfamily (protein, UniProt P08476 311-426, looked up)
Inhibin beta A chain: GLECDGKVNICCKKQFFVSFKDIGWNDWIIAPSGYHANYCEGECPSHIAGTSGSSLSFHSTVINHYRMRGHSPFANLKSCCVPTKLRPMSMLYYDDGQNIIKKDIQNMIVEECGCS
modifications: Inhibin beta A chain
notes: member of the TGF-β superfamily
- cdx2 expression at Stage 1 (hESCs [2]): essentially eliminates expression of cdx2
- induction of MIXL1, GSC, T, SOX17 and FOXA2 (hESCs [1]; CDM, compared to undifferentiated cells in CM): significant induction
- induction of pancreatic cell differentiation (hESCs [3]; 5, 50 or 100 ng/ml in serum-free medium, treatment alone): cannot induce pancreatic cell differentiation
- EB formation from treated hESCs (hESCs [3]; Stage 1 treatment in CDM): failed to develop

B2: noggin: a known BMP antagonist (protein, UniProt Q13253 28-232, looked up)
Noggin: QHYLHIRPAPSDNLPLVDLIEHPDPIFDPKEKDLNETLLRSLLGGHYDPGFMATSPPEDRPGGGGGAAGGAEDLAELDQLLRQRPSGAMPSEIKGLEFSEGLAQGKKQRLSKKLRRKLQMWLWSQTFCPVLYAWNDLGSRFWPRYVKVGSCFSKRSCSVPEGMVCKPSKSVHLTVLRWRCQRRGGQRCGWIPIQYPIISECKCSC
- effect of BMP4 on endoderm- and pancreas-associated transcripts (hESCs [1]; 300 ng/ml, simultaneous incubation with 50 ng/ml BMP4): eliminated
- expression of SOX17, FOXA2, Brachyury and PDX1 (hESCs [1]; added during Stage 1, read at the end of Stage 2): significantly reduced levels of expression
